≈ marks a conversion by molar mass, not a printed value. Where two headings read alike, the source gives them in different places.
Assays:
Format in all cases: cell-based
[1] = system: Candida glabrata; assay: Antifungal MIC (RPMI-1640 microdilution); conditions: Nakaseomyces glabratus
[2] = system: Coccidioides sp.; assay: microbe, parasite or virus in culture
[3] = system: Emergomyces sp.; assay: Antifungal MIC (RPMI-1640 microdilution)
[4] = system: Candida albicans; assay: Antifungal MIC (RPMI-1640 microdilution)
[5] = system: Cryptococcus neoformans; assay: Antifungal MIC (RPMI-1640 microdilution); conditions: Cryptococcus neoformans
[6] = system: Blastomyces dermatitidis; assay: Antifungal MIC (RPMI-1640 microdilution)
[7] = system: Scedosporium sp.; assay: Antifungal MIC (RPMI-1640 microdilution); conditions: Scedosporium
[8] = system: Candida guilliermondii; assay: Antifungal MIC (RPMI-1640 microdilution); conditions: Meyerozyma guilliermondii
[9] = system: P. variotii; assay: Antifungal MIC (RPMI-1640 microdilution); conditions: Paecilomyces variotii, read-out: MIC 50% inhibition; isolate MYA-3630
[10] = system: Candida auris; assay: Antifungal MIC (RPMI-1640 microdilution); conditions: Candidozyma auris
[11] = system: Candida parapsilosis; assay: Antifungal MIC (RPMI-1640 microdilution); conditions: for MIC50: Lodderomyces parapsilosis
[12] = system: C. krusei; assay: Antifungal MIC (RPMI-1640 microdilution); conditions: Pichia kudriavzevii, ATCC6258, read-out: MIC 50% inhibition; isolate ATCC 6258
[13] = system: Histoplasma capsulatum; assay: microbe, parasite or virus in culture
[14] = system: M. tuberculosis [ATCC #27294]; assay: MIC against M. tuberculosis in 7H9 media; conditions: Mycobacterium tuberculosis, read-out: MIC
[15] = system: A. baumannii; assay: Antibacterial MIC (broth microdilution); conditions: Acinetobacter baumannii
[16] = system: K. pneumoniae; assay: Antibacterial MIC (broth microdilution); conditions: Klebsiella pneumoniae
[17] = system: P. aeruginosa; assay: Antibacterial MIC (broth microdilution); conditions: Pseudomonas aeruginosa
[18] = system: E. coli; assay: Antibacterial MIC (broth microdilution)
Procedure: Growth Medium—Cation adjusted Mueller-Hinton broth was used as the test medium. Broth for panel preparation was prepared from commercial dehydrated medium (Difco formulation, BD Diagnostics, catalog number 275730).
Dilution of Investigational Agents—Polystyrene test tubes were used to prepare the drug dilutions and sterile U-shaped 96-well polystyrene microtiter trays were used for performing the MIC assays. Stock solutions of the investigational agents were prepared at concentrations 100-times the highest concentration to be tested (6400-1.25 μg/ml) using dimethyl sulfoxide. Aliquots of the stock solutions were dispensed into polypropylene vials and stored at −20° C. Further dilutions (1:50) were made in the culture medium (cation-adjusted Mueller-Hinton medium).
After the dilutions of the working 2-fold investigational antibacterial solutions were prepared, 50 μL of each concentration was transferred into rows of the first 10 wells of each 12-well column of the U-shaped disposable 96-well microtiter trays using a multichannel pipettor. The 11th well in each row served as the sterility control, and the 12th well contained only culture medium to serve as the growth control for each isolate. In like manner, the control drug for the organism being tested was prepared in a separate 96 well panel exactly as described above. A 50 μL volume of the standardized inoculum suspension of each test isolate was prepared in culture medium to directly inoculate each test well of the drug containing microtiter tray.
Inoculum Preparation—Colonies of each strain generated on sheep blood agar plates with overnight growth at 35° C. in ambient air were used to directly prepare a suspension equivalent in density to the 0.5 McFarland opacity standard. The exact turbidity of each suspension was determined using a desktop portable photometer. For panels containing 2× drug concentrations, a 1:100 dilution of the McFarland organism suspension was prepared in cation-adjusted Mueller-Hinton broth and 50 μL aliquots of each test (and control) strain was added to each well of the designated rows of the microtiter trays using a multichannel pipettor. The target inoculum concentration was 5×10^5 CFU/ml in each well.
Trays were removed and each well were inspected for evidence of growth (turbidity). The MIC was defined as the lowest concentration of the investigational agent and the control drug that prevents visibly discernible growth in the test wells.

Compound: OC(Cn1cncn1)(Cn1cncn1)c1ccc(F)cc1F [Fluconazole]
- MIC50 ([1]; read-out: MIC 50% inhibition, isolate 05-62): > 64 µg/mL
- MIC50 ([1]; read-out: MIC 50% inhibition, isolate 05-761): 8 µg/mL (≈ 26.1 µM)
- MIC50 ([1]; read-out: MIC 50% inhibition, isolate CG3): 32 µg/mL (≈ 104 µM)
- MIC50 ([2]; read-out: MIC 50% inhibition, isolate Cocci1): 16 µg/mL (≈ 52.2 µM)
- MIC50 ([2]; read-out: MIC 50% inhibition, isolate Cocci2): 32 µg/mL (≈ 104 µM)
- MIC50 ([2]; read-out: MIC 50% inhibition, isolate D117-143): 4 µg/mL (≈ 13.1 µM)
- MIC50 ([3]; read-out: MIC 50% inhibition, isolate Emerg2): ≤ 0.03 µg/mL
- MIC50 ([3]; read-out: MIC 50% inhibition, isolate Emerg3): ≤ 0.03 µg/mL
- MIC50 ([4]; ATCC90028, read-out: MIC 50% inhibition, isolate ATCC 90028): 0.25 µg/mL (≈ 0.816 µM)
- MIC50 ([4]; read-out: MIC 50% inhibition, isolate CA3): > 64 µg/mL
- MIC50 ([4]; read-out: MIC 50% inhibition, isolate SC5314): 0.5 µg/mL (≈ 1.63 µM)
- MIC50 ([5]; read-out: MIC 50% inhibition, isolate CN3): 64 µg/mL (≈ 209 µM)
- MIC50 ([5]; read-out: MIC 50% inhibition, isolate H99): 16 µg/mL (≈ 52.2 µM)
- MIC50 ([5]; read-out: MIC 50% inhibition, isolate USC1597): 4 µg/mL (≈ 13.1 µM)
- MIC50 ([6]; read-out: MIC 50% inhibition, isolate Blasto1): ≤ 0.03 µg/mL
- MIC50 ([6]; read-out: MIC 50% inhibition, isolate Blasto2): ≤ 0.03 µg/mL
- MIC50 ([6]; read-out: MIC 50% inhibition, isolate Blasto3): ≤ 0.03 µg/mL
- MIC50 ([7]; read-out: MIC 50% inhibition, isolate Scedo1): 0.125 µg/mL (≈ 0.408 µM)
- MIC50 ([7]; read-out: MIC 50% inhibition, isolate 00-180): 0.125 µg/mL (≈ 0.408 µM)
- MIC50 ([7]; read-out: MIC 50% inhibition, isolate LPI): 4 µg/mL (≈ 13.1 µM)
- MIC50 ([8]; read-out: MIC 50% inhibition, isolate Cgui1): 1 µg/mL (≈ 3.27 µM)
- MIC50 ([8]; read-out: MIC 50% inhibition, isolate Cgui2): 2 µg/mL (≈ 6.53 µM)
- MIC50 ([8]; read-out: MIC 50% inhibition, isolate Cgui3): 2 µg/mL (≈ 6.53 µM)
- MIC50 [9]: 8 µg/mL (≈ 26.1 µM)
- MIC50 ([10]; read-out: MIC 50% inhibition, isolate DI17-46): > 64 µg/mL
- MIC50 ([10]; read-out: MIC 50% inhibition, isolate DI17-47): > 64 µg/mL
- MIC50 ([10]; read-out: MIC 50% inhibition, isolate DI17-48): 2 µg/mL (≈ 6.53 µM)
- MIC50 ([11]; ATCC22019, read-out: MIC 50% inhibition, isolate ATCC 22019): 1 µg/mL (≈ 3.27 µM)
- MIC50 ([11]; read-out: MIC 50% inhibition, isolate CP1): 0.5 µg/mL (≈ 1.63 µM)
- MIC 50% inhibition ([11]; isolate CP2): 0.5 µg/mL (≈ 1.63 µM)
- MIC 50% inhibition ([11]; isolate CP3): 0.5 µg/mL (≈ 1.63 µM)
- MIC50 [12]: 32 µg/mL (≈ 104 µM)
- MIC50 ([13]; read-out: MIC 50% inhibition, isolate HC1): 0.125 µg/mL (≈ 0.408 µM)
- MIC50 ([13]; read-out: MIC 50% inhibition, isolate HC2): ≤ 0.03 µg/mL
- MIC50 ([13]; read-out: MIC 50% inhibition, isolate HC3): ≤ 0.03 µg/mL

Compound: NNC(=O)c1ccncc1 [Isoniazid]
- MIC ([14]; ATCC27294, 168 h, 7H9 with BSA, DPPC and cholesterol, 1 week): 0.2 µM (≈ 0.0274 µg/mL)
- MIC ([14]; ATCC27294, 168 h, 7H9 with casitone and DPPC, 1 week): 0.07 µM (≈ 0.0096 µg/mL)
- MIC ([14]; ATCC27294, 168 h, 7H9 with glucose and BSA, 1 week): 0.2 µM (≈ 0.0274 µg/mL)
- MIC ([14]; ATCC27294, 168 h, 7H9 with glucose and casitone, 1 week): 0.1 µM (≈ 0.0137 µg/mL)
- MIC ([14]; ATCC27294, 336 h, 7H9 with BSA, DPPC and cholesterol, 2 weeks): 0.3 µM (≈ 0.0411 µg/mL)
- MIC ([14]; ATCC27294, 336 h, 7H9 with casitone and DPPC, 2 weeks): 0.1 µM (≈ 0.0137 µg/mL)
- MIC ([14]; ATCC27294, 336 h, 7H9 with glucose and BSA, 2 weeks): 0.3 µM (≈ 0.0411 µg/mL)
- MIC ([14]; ATCC27294, 336 h, 7H9 with glucose and casitone, 2 weeks): 0.15 µM (≈ 0.0206 µg/mL)

Compound: C[C@@H](O)[C@H]1C(=O)N2C(C(=O)O)=C(S[C@@H]3CN[C@H](C(=O)N(C)C)C3)[C@H](C)[C@H]12 [Meropenem]
- MIC ([15]; ATCC17978, isolate ATCC 17978): ≤ 0.125 µg/mL
- MIC ([15]; isolate AR-88): > 64 µg/mL
- MIC ([15]; isolate AR-273): 64 µg/mL (≈ 167 µM)
- MIC ([16]; ATCC70063, isolate ATCC 70063): ≤ 0.125 µg/mL
- MIC ([16]; isolate AR-97): 64 µg/mL (≈ 167 µM)
- MIC ([16]; isolate AR-113): > 64 µg/mL
- MIC ([17]; ATCC27853, isolate ATCC 27853): 0.25 µg/mL (≈ 0.652 µM)
- MIC ([17]; isolate AR-230): > 64 µg/mL
- MIC ([17]; isolate J4242): 8 µg/mL (≈ 20.9 µM)
- MIC ([18]; Escherichia coli, ATCC25922, isolate ATCC 25922, read-out: MIC): ≤ 0.125 µg/mL
- MIC ([18]; Escherichia coli, isolate J4243 (MO72), read-out: MIC): ≤ 0.125 µg/mL
- MIC ([18]; isolate J4244 (JJ1886)): ≤0.125 µg/mL

Source: patent US12691107B2, “Methods for the treatment and prevention of lung infections caused by gram-positive bacteria, fungus, or virus by administration of tafenoquine” (priority 2020, dated 2026)
